# Measured values taken from US11191801B2, “Pharmaceutical composition for preventing or treating diabetic complications and angioedema, containing natural mixture extract as active ingredient” (KOREA INSTITUTE OF ORIENTAL MEDICINE, priority 2014, dated 2021).
# “And” between values parts separate entries of the source, which are not always exact repeats. Equal values may be shown once.
# Key:
# MNU-induced C57BL/6 mice = assay: MNU-induced macular degeneration model, extracts versus paeoniflorin: thickness of outer nuclear layers; type: in vivo; settings: for Thickness of outer nuclear layer (AU): orally
# Procedure: 6-week-old male C57BL/6 mice were used after purification thereof for one week. In order to induce damage and denaturation of photoreceptor cells, among morphological changes of retinal tissues which appeared in macular degeneration, 1% (0.05% acetic acid) N-methyl-N-nitrosourea (MNU, Sigma, USA) was intraperitoneally injected to the 7-week-old male C57BL/6 mice at a concentration of 60 mg/kg. The same amount of 0.05% acetic acid was intraperitoneally administered to the normal group. As the samples, CMO4 (100 mg/kg), which is the extract of cinnamon twig and moutan root bark (1:8), and CPA4 (100 mg/kg), which is the extract of cinnamon twig and peony root (1:8), paeoniflorin −2.7 (2.7 mg/kg), and paeoniflorin −12.3 (12.3 mg/kg) were suspended and prepared in 0.5% CMC and administered orally once before the MNU administration day. After administration of MNU, these resultants were orally administered once a day for seven days, respectively. In the normal and MNU-induced groups, the same amount of 0.5% CMC was orally administered.
# Change in a thickness of outer nuclear layers caused by damage to photoreceptor cells in retinal nerve tissues was confirmed.
# Specifically, experimental groups in which the samples were treated in the same manner as Experimental Example 8-1 were autopsied after the administration, and eyeballs were enucleated. Thereafter, the enucleated eyeballs were fixed in 10% neutralized formalin for one day, and embedded with paraffin to prepare slide sections. The slide sections were stained with H&E and observed under an optical microscope.
# [1] = system: human retinal pigment epithelial cell line (ARPE-19); settings: Molecular Vision 2011; 17: 3512-3522; cited from earlier work
# [2] = system: advanced glycation end-products (AGEs); assay: Inhibition of producing advanced glycation end-products (AGEs) in vitro (BSA with fructose/glucose, fluorescence); type: biochemical; settings: BSA 10 mg/mL, 0.2 M fructose and 0.2 M glucose, 37° C., seven days
# Procedure: Specifically, 10 mg/mL of bovine serum albumin (BSA, Sigma, USA) dissolved in 50 mM phosphate buffer (pH 7.4) was used as a protein source, and the solution mixed with 0.2 M fructose and 0.2 M glucose was used as a sugar source. The extracts of Examples and aminoguanidine (positive control group) were dissolved in 0.2% dimethylsulfoxide (DMSO), followed by dissolving again in 15% tween 80. The thus-prepared protein source, sugar source, and extracts were mixed, prepared at 1 mL in total, cultured at 37° C. for seven days, and allowed to undergo glycation. Herein, 0.02% sodium azide, an antibacterial agent, was added to prevent bacterial production. After cultivation, the fluorescence was measured at an absorption wavelength of 350 nm and an emission wavelength of 450 nm using a spectrofluorometric detector (Bio-TEK, USA).
# [3] = target: T1, cross-link between AGE-BSA and collagen (Bos taurus, UniProt P02769); assay: Fragmentizing cross-link of advanced glycation end-products (AGE-BSA/collagen ELISA); type: biochemical; settings: AGE-BSA cross-linked to collagen, 37° C., four hours
# T1 construct: purchased Transgenic Inc. Kobe, Japan (AGE-BSA); Greiner Bio-One, Germany (collagen-coated plate)
# Procedure: Specifically, 1.0 μg of AGE-BSA (Transgenic Inc. Kobe, Japan) was dispensed into a collagen-coated 96-well microtiter plate (Greiner Bio-One, Germany) and cultured at 37° C. for four hours, and then the AGE-BSA and collagen were allowed to cross-link. After washing the resultant three times with PBST (0.05%) to remove AGE-BSA not linked, a mixed extract and ALT-711 were added, and cultured at 37° C. for four hours. Thereafter, the resultant was washed with PBST (0.05%), and in order to detect the AGE-BSA remaining due to the cross-link to collagen, mouse monoclonal anti-AGE-BSA antibodies (6D12, Transgenic Inc. Kobe, Japan) were diluted at 1:250 and dispensed, followed by cultivation at 37° C. for one hour. After one hour, the resultant was washed with PBST (0.05%) and reacted with HRP-linked goat anti-mouse IgG antibodies (Santa Cruz, USA) to develop TMB (3.3′,5,5′-tetramethylbenzidine) as a substrate. Thereafter, absorbance was measured at 450 nm. The cross-link fragmentation effect (%) of AGE-BSA was calculated as shown in the following Equation 2.
# db/db mice [4] = assay: Therapeutic model with metformin co-administration: damage to blood-retinal barrier; type: in vivo; settings: metformin 350 mg/kg/day alone
# Procedure: In addition, 50 mg/mL of fluorescein-dextran (2×10^6 molecular weight) which was prepared by dissolving in sterilized PBS (1 mL) was injected into the left ventricle. After 10 minutes, the eyeballs were enucleated, and the left eyeball was placed in an eyecup. The separated retina was placed on a slide, and then mounted using aqueous mounting medium. After this was sufficiently dried, a fluorescence microscope was used to observe the same. The results were confirmed at 12 weeks, 18 weeks, and 24 weeks of inducing diabetes, respectively.
# db/db mice [5] = assay: Therapeutic model with metformin co-administration: formation of acellular capillaries; type: in vivo; settings: metformin 350 mg/kg/day alone
# Procedure: Specifically, eyeballs were enucleated from mice in the same manner as Experimental Example 6-2, and retinas were enucleated from the eyeballs and washed with running water. Thereafter, they were placed in 3% trypsin and cultured at 37° C. for one hour. The digested retinas were transferred to PBS, and the internal membrane (membrane of organelle present in cells) was removed. The vascular frame was separated from the retinal background using a glass rod, placed on a slide, and dried. The dried vascular frame was then stained with PAS and hematoxylin, and variations in cell walls and nuclei were confirmed.
# claudin-5 and occludin = assay: Therapeutic model with metformin co-administration: damage to tight-junction proteins; type: in vivo, mice; settings: metformin 350 mg/kg/day alone
# Procedure: In addition, the resultant was dehydrated and substituted three times with xylene, thereby embedding the same with paraffin. Blocks of the embedded tissue were prepared as serial sections in a thickness of 4 μm, and placed on slides for use. In order to remove an endogenous peroxidase activity, a slide which underwent deparaffinization and function processes was allowed to react with 3% hydrogen peroxide solution for 10 minutes, and then washed three times with PBS containing 0.05% tween 20. […] Thereafter, the diluted primary antibodies were treated for one hour or overnight. After washing with PBS for one hour, a labeled streptoavidin biotin (LSAB) kit (Dako, USA) was applied to the resultants, developed with DAB, and then observed using an optical microscope. […] Thereafter, the resultants were stained with DAPI and observed using a fluorescence microscope.
# T1 sequence (P02769 25-607): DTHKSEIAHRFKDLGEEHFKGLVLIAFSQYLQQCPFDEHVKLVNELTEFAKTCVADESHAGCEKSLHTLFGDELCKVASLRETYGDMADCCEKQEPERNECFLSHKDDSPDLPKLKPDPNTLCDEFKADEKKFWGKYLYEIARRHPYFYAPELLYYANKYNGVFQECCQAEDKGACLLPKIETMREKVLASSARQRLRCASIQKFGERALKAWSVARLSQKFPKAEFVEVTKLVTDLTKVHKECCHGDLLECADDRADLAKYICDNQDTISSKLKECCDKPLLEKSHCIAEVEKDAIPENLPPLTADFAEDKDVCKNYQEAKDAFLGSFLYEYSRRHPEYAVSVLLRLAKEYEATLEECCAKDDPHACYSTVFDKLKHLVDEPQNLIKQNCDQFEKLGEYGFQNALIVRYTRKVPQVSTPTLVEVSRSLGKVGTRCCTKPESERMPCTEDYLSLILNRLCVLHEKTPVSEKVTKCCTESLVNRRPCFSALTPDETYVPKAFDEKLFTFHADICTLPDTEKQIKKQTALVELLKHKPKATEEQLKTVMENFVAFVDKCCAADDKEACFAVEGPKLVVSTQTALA
structure (smiles),measurement,setting,value
C[C@@]12C[C@@]3(O)O[C@@H](O1)[C@]1(COC(=O)c4ccccc4)[C@H]3C[C@@]12O[C@@H]1O[C@H](CO)[C@@H](O)[C@H](O)[C@H]1O [paeoniflorin],Thickness of outer nuclear layer (AU),"MNU-induced C57BL/6 mice; Table 4: CMO4 100 mg/kg, paeoniflorin 2.7 mg/kg, NOR 1.99, MNU 1.23, listed as PF-2.7",1.23±0.21 AU
same,Thickness of outer nuclear layer (AU),"MNU-induced C57BL/6 mice; Table 5: CPA4 100 mg/kg, paeoniflorin 12.4 mg/kg, NOR 1.99, MNU 0.92, listed as PF-12.4",1.11±0.19 AU
same,Thickness of outer nuclear layer (%),"MNU-induced C57BL/6 mice; Table 5: CPA4 100 mg/kg, paeoniflorin 12.4 mg/kg, NOR = 100, MNU = 0.57, listed as PF-12.4",17.5% and 17.46 ± 17.39%
same,apoptosis caused by H2O2,[1],inhibitory effect on apoptosis
"N=C(N)NN [AG, aminoguanidine]","IC50 (μg/mL), inhibition of production of advanced glycation end-products",[2],82.50 ± 1.10 µg/mL
Cc1sc[n+](CC(=O)c2ccccc2)c1C.[Cl-] [ALT-711],"IC50 (μg/mL), cross-link fragmentation effect of AGE-BSA",[3],"17,060 ± 2.35 μg/mL"
CN(C)C(=N)N=C(N)N [metformin],outflow of fluorescent substances,db/db mice [4]; at 18 weeks,significantly reduced
same,outflow of fluorescent substances,db/db mice [4]; at 24 weeks,not prevented
same,formation of acellular capillaries,db/db mice [5],could not prevent the proliferation
same,amount of occludin (western blot),claudin-5 and occludin,no significant increase
same,claudin-5 loss (staining),claudin-5 and occludin,snapped in various regions of blood vessels
